Data: ChEMBL document CHEMBL1821723 (J Med Chem, 2011)

Experiment: in vitro
Conditions: human, liver microsomes
Description: Metabolic stability in human liver microsome assessed as compound remaining after 30 mins

Row | Structure (SMILES) | remaining at 0.5 h
1 | CC(Oc1cc(-c2cnn(CC3CN(CC(N)=O)C3)c2)cnc1N)c1c(Cl)ccc(F)c1Cl (racemic) | 47.8%
2 | CC(Oc1cc(-c2cnn(CC3(O)CCOCC3)c2)cnc1N)c1c(Cl)ccc(F)c1Cl (racemic) | 0.9%
3 | CC(Oc1cc(-c2cnn(CC3CNC3)c2)cnc1N)c1c(Cl)ccc(F)c1Cl (racemic) | 71%
4 | CC(Oc1cc(-c2cnn(CC(=O)NCCCN(C)C)c2)cnc1N)c1c(Cl)ccc(F)c1Cl (racemic) | 23.8%
5 | CC(Oc1cc(-c2cnn(C)c2)cnc1N)c1c(Cl)ccc(F)c1Cl (racemic) | 5.2%

Other lines, results leading:

Row | remaining at 0.5 h | Structure (SMILES)
6 | 3.6% | CC(Oc1cc(-c2cnn(C(C)(C)C(=O)NCCN(C)C)c2)cnc1N)c1c(Cl)ccc(F)c1Cl (racemic)
7 | 44.3% | CC(Oc1cc(-c2cnn(C3CCCNC3)c2)cnc1N)c1c(Cl)ccc(F)c1Cl (racemic)
8 | 3.2% | CC(Oc1cc(-c2cnn(C(C)C)c2)cnc1N)c1c(Cl)ccc(F)c1Cl (racemic)
9 | 44% | CC(Oc1cc(-c2cnn(C3CNC3)c2)cnc1N)c1c(Cl)ccc(F)c1Cl (racemic)
